Earlier results on one compound are cited in patent US20170027976A1, “NOVEL ADEMETIONINE FORMULATIONS” (METHYLATION SCIENCES INTERNATIONAL SRL, priority 2014, published 2017).

The conditions of this series: background statement; large daily doses required.

For `C[S+](CC[C@H](N)C(=O)[O-])C[C@H]1O[C@@H](n2cnc3c(N)ncnc32)[C@H](O)[C@@H]1O` (stereo partly drawn) [ademetionine, S-adenosyl-L-methionine], the uptake of ademetionine is reported as less than 5%.
